The record followed here is patent publication US20200392158A1, “INHIBITORS OF LEUCINE RICH REPEAT KINASE 2” (GLAXOSMITHKLINE INTELLECTUAL PROPERTY DEVELOPMENT LIMITED, priority 2017, published 2020).

The term IC50 denotes the point on the concentration scale where inhibition reaches its midpoint.

Data set [1] relates to human hepatocytes. Kind of data set: Metabolic stability assay in hepatocytes. Type of data set: in vitro ADME. Conditions: 0.5 μM test compound, intrinsic clearance. As to the method: c. Metabolic Stability Assay
Metabolic stability of compounds of the invention was evaluated in hepatocytes from human and preclinical species (e.g. rat). A test compound (0.5 μM) was incubated with 0.5 million viable hepatocytes at 37° C. in a 95% humidified incubator supplied with 5% CO2. 7-ethoxycoumarin was used as positive control and was treated in the same manner as the test compound. The incubation samples were gently mixed at 150 rpm. Incubation medium was Williams' Medium E containing 2 mM GlutaMAX™ and 25 mM HEPES. Samples were removed from incubation at a specified time interval (tx): 0, 15, 30, 60, 90 and 120 min. Reactions were terminated by adding equal volume of ice-cold acetonitrile/methanol/acetic acid (80/20/1, v/v/v) containing an internal standard (e.g. 100 ng/mL to butamide as internal standard). […] The instrument responses of the test compound and the internal standard were measured using a compound specific LC/MS/MS methodology. The percentage of remaining test compound is calculated from the peak area ratio between the remaining test compound after incubation (tx) and the test compound peak area at the beginning of incubation (tx=0 min).
The half-life (t1/2) is calculated using the following equation: […]
Metabolic stability of a test compound is expressed as Intrinsic Clearance (Clint) and is calculated from the half-life (t1/2) using the following equation: […]

In data set [2] the target is T1, LRRK2 kinase in SH-SY5Y cells over-expressing recombinant full length LRRK2 (Homo sapiens, UniProt Q5S007).
T1 construct: A BacMam virus expressing full length recombinant LRRK2 was purchased from Invitrogen; host or cells: SH-SY5Y human neuroblastoma cells transduced with BacMam LRRK2 virus
T1 sequence (Q5S007 whole entry): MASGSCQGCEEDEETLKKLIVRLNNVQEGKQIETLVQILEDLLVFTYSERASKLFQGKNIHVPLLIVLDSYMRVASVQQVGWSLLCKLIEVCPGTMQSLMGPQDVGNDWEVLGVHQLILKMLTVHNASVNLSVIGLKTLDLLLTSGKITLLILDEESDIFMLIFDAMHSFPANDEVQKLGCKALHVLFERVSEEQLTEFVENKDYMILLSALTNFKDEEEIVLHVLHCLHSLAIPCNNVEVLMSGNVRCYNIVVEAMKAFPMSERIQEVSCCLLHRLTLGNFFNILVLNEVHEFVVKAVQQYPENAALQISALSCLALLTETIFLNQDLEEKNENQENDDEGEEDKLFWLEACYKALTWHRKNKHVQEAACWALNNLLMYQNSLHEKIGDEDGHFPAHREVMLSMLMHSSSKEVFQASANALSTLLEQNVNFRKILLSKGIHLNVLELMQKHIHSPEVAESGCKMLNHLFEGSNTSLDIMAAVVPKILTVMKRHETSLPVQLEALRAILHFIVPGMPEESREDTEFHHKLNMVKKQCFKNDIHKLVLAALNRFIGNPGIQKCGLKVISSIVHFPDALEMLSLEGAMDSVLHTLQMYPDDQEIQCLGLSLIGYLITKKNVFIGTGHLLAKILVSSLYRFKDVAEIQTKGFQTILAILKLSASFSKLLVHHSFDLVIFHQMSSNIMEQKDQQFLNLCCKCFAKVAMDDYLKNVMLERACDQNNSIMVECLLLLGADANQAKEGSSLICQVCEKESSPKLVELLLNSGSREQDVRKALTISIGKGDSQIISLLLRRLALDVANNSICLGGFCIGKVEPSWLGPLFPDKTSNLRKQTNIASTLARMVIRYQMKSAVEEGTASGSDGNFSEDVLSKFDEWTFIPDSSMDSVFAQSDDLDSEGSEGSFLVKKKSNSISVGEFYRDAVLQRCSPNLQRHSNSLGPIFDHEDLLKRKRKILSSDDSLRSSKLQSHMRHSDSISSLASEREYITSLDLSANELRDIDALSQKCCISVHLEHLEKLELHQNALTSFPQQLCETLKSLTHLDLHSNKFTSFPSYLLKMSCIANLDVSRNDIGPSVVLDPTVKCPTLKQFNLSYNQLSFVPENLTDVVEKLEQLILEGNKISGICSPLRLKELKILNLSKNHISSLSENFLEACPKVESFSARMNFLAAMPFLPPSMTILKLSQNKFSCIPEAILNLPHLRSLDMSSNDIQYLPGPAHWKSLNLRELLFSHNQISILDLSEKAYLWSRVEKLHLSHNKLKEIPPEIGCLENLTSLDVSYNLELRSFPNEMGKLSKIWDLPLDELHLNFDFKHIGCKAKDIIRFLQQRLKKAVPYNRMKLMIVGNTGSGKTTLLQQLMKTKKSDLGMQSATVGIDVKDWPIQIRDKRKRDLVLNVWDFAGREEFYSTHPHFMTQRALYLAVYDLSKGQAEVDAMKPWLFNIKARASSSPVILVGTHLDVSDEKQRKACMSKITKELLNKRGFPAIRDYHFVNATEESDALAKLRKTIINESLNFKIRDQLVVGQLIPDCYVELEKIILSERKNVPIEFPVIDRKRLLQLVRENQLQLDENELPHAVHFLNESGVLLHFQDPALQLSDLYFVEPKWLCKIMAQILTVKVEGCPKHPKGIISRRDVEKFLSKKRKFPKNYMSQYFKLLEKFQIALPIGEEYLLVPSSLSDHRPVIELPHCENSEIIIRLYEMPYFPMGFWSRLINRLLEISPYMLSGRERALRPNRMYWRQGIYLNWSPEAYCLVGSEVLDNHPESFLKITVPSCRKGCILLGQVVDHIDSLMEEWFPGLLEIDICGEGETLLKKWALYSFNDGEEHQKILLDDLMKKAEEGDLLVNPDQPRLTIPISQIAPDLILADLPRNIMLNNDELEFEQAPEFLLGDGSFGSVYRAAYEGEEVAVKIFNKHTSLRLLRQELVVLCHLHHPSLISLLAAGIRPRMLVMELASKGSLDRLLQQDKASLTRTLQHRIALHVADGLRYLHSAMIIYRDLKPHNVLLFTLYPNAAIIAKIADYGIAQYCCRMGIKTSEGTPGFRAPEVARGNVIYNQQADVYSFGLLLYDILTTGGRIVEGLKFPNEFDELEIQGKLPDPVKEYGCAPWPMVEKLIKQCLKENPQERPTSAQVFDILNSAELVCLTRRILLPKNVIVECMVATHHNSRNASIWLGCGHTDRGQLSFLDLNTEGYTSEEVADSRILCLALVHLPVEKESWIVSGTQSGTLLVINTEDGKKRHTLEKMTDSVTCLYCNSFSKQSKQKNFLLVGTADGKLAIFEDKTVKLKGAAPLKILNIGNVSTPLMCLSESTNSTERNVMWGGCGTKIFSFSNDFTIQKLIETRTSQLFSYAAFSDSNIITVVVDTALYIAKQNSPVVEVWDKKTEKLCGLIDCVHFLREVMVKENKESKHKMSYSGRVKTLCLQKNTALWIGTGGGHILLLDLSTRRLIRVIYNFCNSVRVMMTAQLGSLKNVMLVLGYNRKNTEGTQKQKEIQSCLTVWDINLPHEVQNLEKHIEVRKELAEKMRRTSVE
Description: Recombinant cellular LRRK2 AlphaScreen assay (LRRK2 Ser935 phosphorylation). To be noted: 60 min. Type of data set: cell-based. Summed up: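 Read-out is AlphaScreen of LRRK2 pSer935 over total LRRK2 in lysates of SH-SY5Y cells over-expressing full-length LRRK2 via BacMam (24 h transduction). Cells were exposed 60 min at 37 °C to an 11-point 1-in-4 dilution series starting at 10 uM; sigmoidal fit.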
(In general: Bead proximity is the source of the signal in Alpha formats.)

Data set [3] concerns the target T2, full length G2019 human LRRK2 (Homo sapiens, UniProt Q5S007, R50H).
T2 construct: made in house; host or cells: HEK293 6E cells transduced with BacMam virus (virus generated in Sf9 cells)
Description: Full length G2019 human LRRK2 inhibition mass spectrometry assay. Type of data set: biochemical. To be noted: LRRKtide to phospho-LRRKtide conversion, RapidFire MS, 2 mM ATP. The essentials:
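Inhibition taken as reduced LRRKtide phosphorylation, quantified by RapidFire-coupled triple-quadrupole MS as product/(product+substrate) peak area. Reaction: 2 mM ATP, 25 μM peptide, ~25 nM full-length G2019 Flag-LRRK2, Hepes pH 7.2 buffer, room temperature for 1 h. 11-point 1-in-4 dilutions from 100 μM; logistic fit gives IC50, reported as pIC50.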

T2 sequence (Q5S007 with tags, fused parts or gaps R50H): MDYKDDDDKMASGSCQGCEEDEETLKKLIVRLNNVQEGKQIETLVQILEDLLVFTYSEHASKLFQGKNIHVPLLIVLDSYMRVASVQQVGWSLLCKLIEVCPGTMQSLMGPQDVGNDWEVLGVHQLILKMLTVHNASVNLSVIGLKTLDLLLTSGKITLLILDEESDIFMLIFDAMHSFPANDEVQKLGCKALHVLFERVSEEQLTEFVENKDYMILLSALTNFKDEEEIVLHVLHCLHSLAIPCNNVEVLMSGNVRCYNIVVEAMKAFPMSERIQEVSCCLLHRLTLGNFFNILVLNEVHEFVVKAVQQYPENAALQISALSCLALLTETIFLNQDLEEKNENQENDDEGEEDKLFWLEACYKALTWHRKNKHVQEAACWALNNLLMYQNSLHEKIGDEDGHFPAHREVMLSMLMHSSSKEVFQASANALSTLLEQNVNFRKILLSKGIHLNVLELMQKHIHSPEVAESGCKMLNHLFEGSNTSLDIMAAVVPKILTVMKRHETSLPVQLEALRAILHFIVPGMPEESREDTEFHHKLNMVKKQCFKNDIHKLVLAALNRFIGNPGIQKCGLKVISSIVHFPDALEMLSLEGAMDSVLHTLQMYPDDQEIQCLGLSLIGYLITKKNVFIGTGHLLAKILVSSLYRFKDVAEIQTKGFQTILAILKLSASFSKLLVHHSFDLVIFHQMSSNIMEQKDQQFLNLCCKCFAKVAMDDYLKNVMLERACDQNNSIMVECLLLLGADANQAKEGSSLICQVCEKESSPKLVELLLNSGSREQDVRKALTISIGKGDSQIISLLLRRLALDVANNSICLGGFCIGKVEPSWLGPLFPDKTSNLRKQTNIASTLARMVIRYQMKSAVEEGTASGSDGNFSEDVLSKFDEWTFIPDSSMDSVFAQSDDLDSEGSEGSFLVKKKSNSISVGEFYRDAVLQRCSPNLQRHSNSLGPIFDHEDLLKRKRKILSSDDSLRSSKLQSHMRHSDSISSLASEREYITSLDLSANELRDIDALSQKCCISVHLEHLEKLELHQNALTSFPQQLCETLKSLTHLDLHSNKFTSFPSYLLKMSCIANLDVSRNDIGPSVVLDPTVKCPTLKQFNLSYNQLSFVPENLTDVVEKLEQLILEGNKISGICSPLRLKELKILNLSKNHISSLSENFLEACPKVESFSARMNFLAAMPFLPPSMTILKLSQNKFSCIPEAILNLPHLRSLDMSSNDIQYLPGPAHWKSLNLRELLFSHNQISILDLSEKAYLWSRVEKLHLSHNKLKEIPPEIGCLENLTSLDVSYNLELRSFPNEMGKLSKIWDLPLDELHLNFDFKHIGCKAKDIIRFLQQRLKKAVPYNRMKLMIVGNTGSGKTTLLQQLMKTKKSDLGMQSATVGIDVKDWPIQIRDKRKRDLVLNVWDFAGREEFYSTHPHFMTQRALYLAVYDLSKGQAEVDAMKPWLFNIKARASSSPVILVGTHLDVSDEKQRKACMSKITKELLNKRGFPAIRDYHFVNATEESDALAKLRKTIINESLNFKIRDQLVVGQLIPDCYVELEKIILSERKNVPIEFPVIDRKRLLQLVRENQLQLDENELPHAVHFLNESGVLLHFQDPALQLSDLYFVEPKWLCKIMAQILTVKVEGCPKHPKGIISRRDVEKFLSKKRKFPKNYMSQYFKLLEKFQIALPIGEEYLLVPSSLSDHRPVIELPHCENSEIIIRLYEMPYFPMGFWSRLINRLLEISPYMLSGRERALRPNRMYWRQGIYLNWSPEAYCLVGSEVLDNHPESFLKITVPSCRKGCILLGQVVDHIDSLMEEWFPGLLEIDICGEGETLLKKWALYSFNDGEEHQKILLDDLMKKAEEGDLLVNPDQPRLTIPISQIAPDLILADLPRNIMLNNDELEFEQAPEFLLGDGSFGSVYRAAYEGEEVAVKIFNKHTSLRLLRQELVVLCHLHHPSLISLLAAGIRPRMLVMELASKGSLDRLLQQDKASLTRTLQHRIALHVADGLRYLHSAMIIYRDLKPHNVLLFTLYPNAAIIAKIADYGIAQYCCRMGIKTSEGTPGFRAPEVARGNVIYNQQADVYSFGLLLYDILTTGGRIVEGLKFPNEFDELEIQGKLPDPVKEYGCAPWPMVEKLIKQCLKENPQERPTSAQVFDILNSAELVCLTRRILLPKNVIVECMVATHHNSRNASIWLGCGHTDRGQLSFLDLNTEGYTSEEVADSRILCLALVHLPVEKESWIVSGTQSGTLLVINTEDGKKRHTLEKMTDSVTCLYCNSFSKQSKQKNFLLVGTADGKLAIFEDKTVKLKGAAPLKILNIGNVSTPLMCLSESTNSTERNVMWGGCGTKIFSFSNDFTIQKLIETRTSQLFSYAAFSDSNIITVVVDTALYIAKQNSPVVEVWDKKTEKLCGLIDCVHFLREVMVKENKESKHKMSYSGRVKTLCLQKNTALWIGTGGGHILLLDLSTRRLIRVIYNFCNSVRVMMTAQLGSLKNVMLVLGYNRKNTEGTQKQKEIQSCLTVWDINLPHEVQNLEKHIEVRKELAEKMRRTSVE

As for `Cc1c2c(nn1C(=O)C1CC1)OCCCNc1nc(ncc1Cl)N2` [E362, 14-Chloro-5-cyclopropanecarbonyl-4-methyl-8-oxa-2,5,6,12,16, 17-hexaazatricyclo[11.3.1.0^3,7]heptadeca-1(16),3,6,13(17),14-pentaene], the “Clint (human)” value in data set [1] was greater than 10 mL/min/g. In data set [2], the IC50 is no more than 0.1 µM.
`Cc1c2c(nn1C1CCOCC1)OCC(F)C(C)Nc1nc(ncc1Cl)N2` (single isomer, unassigned) [E64, 14-Chloro-10-fluoro-4,11-dimethyl-5-(oxan-4-yl)-8-oxa-2,5,6,12, 16,17-hexaazatricyclo[11.3.1.0^3,7]heptadeca-1(16),3,6,13(17),14-pentaene]: the IC50 in data set [2] and in data set [3] was no more than 0.1 µM in each case.
For the molecule `FC(F)c1c2c(nn1C1CCOCC1)OCCCNc1nc(ncc1Cl)N2` [E112, 4-Chloro-4-(difluoromethyl)-5-(oxan-4-yl)-8-oxa-2,5,6,12,16,17-hexaazatricyclo[11.3.1.0^3,7]heptadeca-1(16),3,6,13(17),14-pentaene], the IC50 in data set [2] and in data set [3] was no more than 0.1 µM in each case.
Consider `Cc1c2c(nn1C1CN(C3CCCOC3)C1)OCC[C@@H](C)Nc1nc(ncc1Cl)N2` (stereo partly drawn) [E385, (11R)-14-Chloro-4,11-dimethyl-5[1-(oxan-3-yl)azetidin-3-yl]-8-oxa-2,5,6,12,16,17-hexaazatricyclo[11.3.1.0^3,7]heptadeca-1(16),3,6,13(17),14-pentaene], for which the IC50 in data set [2] and in data set [3] was no more than 0.1 µM throughout.
As for `Cc1c2c(nn1C1CCOCC1)OCCCNc1nc(ncc1C(C)C)N2` [E428, 4-Methyl-5-(oxan-4-yl)-14-(propan-2-yl)-8-oxa-2,5,6,12,16,17-hexaazatricyclo[11.3.1.0^3,7]heptadeca-1(16),3,6,13(17),14-pentaene], the IC50 in data set [2] is greater than 10 µM; in data set [3], no more than 10 µM.
The matching figures for `COC1CNc2nc(ncc2Cl)Nc2c(nn(C3CC(C)OC(C)C3)c2C)OC1` (single isomer, unassigned) [E198, 14-Chloro-5-(2,6-dimethyloxan-4-yl)-10-methoxy-4-methyl-8-oxa-2,5,6,12,16,17-hexaazatricyclo[11.3.1.0^3,7] heptadeca-1(16),3,6,13(17),14-pentaene]: no more than 0.1 µM and no more than 0.1 µM.
Take `COC1CNc2nc(ncc2Cl)Nc2c(nn(CC3CCOCC3)c2C)OC1` (single isomer, unassigned) [E274, 14-Chloro-10-methoxy-4-methyl-5-(oxan-4-ylmethyl)-8-oxa-2,5,6,12,16,17-hexaazatricyclo[11.3.1.0^3,7] heptadeca-1(16),3,6,13(17),14-pentaene]: the IC50 in data set [2] and in data set [3] was no more than 0.1 µM each time.
Regarding `Cc1c2c(nn1C1CCOCC1F)OC[C@@H](F)[C@@H](C)Nc1nc(ncc1Cl)N2` (stereo partly drawn) [E387, (10S, 11R)-14-Chloro-10-fluoro-5-(3-fluorooxan-4-yl)-4,11-dimethyl-8-oxa-2,5,6,12,16,17-hexaazatricyclo[11.3.1.0^3,7] heptadeca-1(16),3,6,13(17),14-pentaene], the IC50 in data set [2] and in data set [3] was no more than 0.1 µM each time.
With `Cc1c2c(nn1C1CC(O)C1)OCC[C@@H](C)Nc1nc(ncc1Cl)N2` (stereo partly drawn) [E375, 3-[(11R)-14-Chloro-4,11-dimethyl-8-oxa-2,5,6,12,16,17-hexaazatricyclo[11.3.1.0^3,7]heptadeca-1(16),3,6,13(17),14-pentaen-5-yl]cyclobutan-1-ol], the IC50 in data set [2] and in data set [3] was no more than 0.1 µM in each case.
Turning to `Cc1c2c(nn1C1CCC(N3C[C@H]4C[C@@H]3CO4)CC1)OCCC(C)Nc1nc(ncc1Cl)N2` (single isomer, unassigned) [E57], the IC50 in data set [2] and in data set [3] was no more than 0.1 µM in each case.
With `Cc1c2c(nn1C1CCC(N3C[C@@H]4C[C@H]3CO4)CC1)OCCC(C)Nc1nc(ncc1Cl)N2` (single isomer, unassigned) [E104], the IC50 in data set [2] and in data set [3] was no more than 0.1 µM each time.
For the molecule `Cc1c2c(nn1C1CCOCC1)OCC(F)(F)CNc1nc(ncc1Cl)N2` [E377, 14-Chloro-10,10-difluoro-4-methyl-5-(oxan-4-yl)-8-oxa-2,5,6,12,16,17-hexaazatricyclo[11.3.1.0^3,7]heptadeca-1(16),3,6,13(17),14-pentaene], the IC50 in data set [2] and in data set [3] was no more than 0.1 µM each time.
On to `Clc1cnc2nc1NCCCOc1nn(C3CCOC3)c(Cl)c1N2` (single isomer, unassigned) [E145, 4,14-Dichloro-5-(oxolan-3-yl)-8-oxa-2,5,6,12, 16,17-hexaaza tricyclo[11.3.1.0^3,7]heptadeca-1(16),3,6,13(17), 14-pentaene], for which the half-inhibitory concentration (IC50) in data set [2] and in data set [3] was no more than 0.1 µM throughout.
With `Cc1c2c(nn1C1CC(N3C[C@@H]4C[C@H]3CO4)C1)OCCCNc1nc(ncc1Cl)N2` (stereo partly drawn) [E311, 14-Chloro-4-methyl-5-{3-[(1S,4S)-2-oxa-5-azabicyclo[2.2.1]heptan-5-yl]-cyclobutyl}-8-oxa-2,5,6,12,16,17-hexaazatricyclo [11.3.1.0^3,7]heptadeca-1(16),3,6,13(17),14-pentaene], the IC50 in data set [2] and in data set [3] was no more than 0.1 µM each time.
In the case of `Cc1c2c(nn1C1CCOCC1)OCCC(C(F)(F)F)Nc1nc(ncc1Cl)N2` (single isomer, unassigned) [E192, 14-Chloro-4-methyl-5-(oxan-4-yl)-11-(trifluoromethyl)-8-oxa-2,5,6,12,16,17-hexaazatricyclo[11.3.1.0^3,7] heptadeca-1(16),3,6,13(17),14-pentaene], the IC50 in data set [2] and in data set [3] was no more than 0.1 µM throughout.
`Cc1c2c(nn1C1CN(C3COC3)C1)OCC[C@@H](C)Nc1nc(ncc1Cl)N2` [E107, (11R)-14-chloro-4,11-dimethyl-5-[1-(oxetan-3-yl)azetidin-3-yl]-8-oxa-2,5,6,12,16,17-hexaazatricyclo[11.3.1.0^3,7]heptadeca-1(16),3,6,13(17),14-pentaene]: the IC50 in data set [2] and in data set [3] was no more than 0.1 µM in each case.
Take `COC1CNc2nc(ncc2Cl)Nc2c(nn(C3CCOCC3)c2C)OC1` (single isomer, unassigned) [E3, 14-chloro-10-methoxy-4-methyl-5-(oxan-4-yl)-8-oxa-2,5,6,12,16,17-hexaazatricyclo [11.3.1.0^3,7]heptadeca-1(16),3,6,13(17),14-pentaene]: the IC50 in data set [2] and in data set [3] was no more than 0.1 µM in each case.
Take `C[C@@H]1CCOc2nn(C3CCN(C4COC4)CC3(F)F)c(Cl)c2Nc2ncc(Cl)c(n2)N1` (single isomer, unassigned) [E444]: the IC50 in data set [2] and in data set [3] was no more than 0.1 µM throughout.
Turning to `Cc1c2c(nn1C1CCOCC1)OCCC(C)Nc1nc(ncc1Cl)N2` (stereo not shown) [E5, 14-Chloro-4,11-dimethyl-5-(oxan-4-yl)-8-oxa-2,5,6,12,16,17-hexaazatricyclo [11.3.1.0^3,7]heptadeca-1(16),3,6,13(17),14-pentaene], the IC50 in data set [2] and in data set [3] was no more than 0.1 µM throughout.
On to `Clc1cnc2nc1NCCCOc1nn(C3CCOCC3)c(Cl)c1N2` [E13, 4,14-Dichloro-5-(oxan-4-yl)-8-oxa-2,5,6,12,16,17-hexaazatricyclo[11.3.1.0^3,7]heptadeca-1(16),3,6,13(17),14-pentaene], for which the IC50 in data set [2] and in data set [3] was no more than 0.1 µM in each case.
